Experimental data as given in patent US20220401408A1, “COMPOSITIONS AND METHODS FOR RESCUING RETINAL AND CHOROIDAL STRUCTURE AND FUNCTION” (AUCKLAND UNISERVICES LIMITED, priority 2019, published 2022).

Assays:
hyperglycemic rats = assay: ERG in hyperglycemic rat diabetic retinopathy model; assay type: in vivo, SD rats (spontaneously hyperglycemic strain)
Source text: Hyperglycemic Rat Diabetic Retinopathy Model—A spontaneously hyperglycemic strain of SD rats, which developed clinical signs of diabetic retinopathy within 4 weeks of birth were identified and isolated within the Vernon Jansen Animal Research Unit, Faculty of Medical and Health Sciences at the University of Auckland. The identification of these rats presenting with hyperglycemia and microaneurysms provided an opportunity to treat a complex, chronic disease model and assess the treatment effect based upon objective, measurable endpoints, despite lacking precise information on the etiology of the disease. Inbreeding was carried out over three generations and eyes were screened for abnormalities between 4-8 weeks of age. Additional information about these rats is presented as supplementary information. Glucose levels were tested in non-fasting rats (Lee J J, Yi H Y, Yang J W, Shin J S, Kwon J H, Kim C W. Characterization of streptozotocin-induced diabetic rats and pharmacodynamics of insulin formulations. Biosci Biotechnol Biochem. 2003; 67:2396-401) using a Freestyle Optium Glucometer (Abbott Laboratories Ltd., UK) and Freestyle Optium glucose strips.
Ten rats per group were the selected (10 normal SD and 10 hyperglycemic) grown to 5 weeks of age and assessed using OCT and ERG. The hyperglycemic rat group was then split into two subgroups of five, with one subgroup fed tonabersat once daily for 14 days from weeks 5 to 7 at a low dose level of 0.28 mg/kg in 0.5 g peanut butter, with the other subgroup fed 0.5 g peanut butter only. All animals were assessed again using ERG and OCT at 8 weeks of age before euthanizing animals and removing the eyes for immunohistochemical analysis. Data groups were randomized prior to the statistical comparison. In summary, normal SD and hyperglycemic rats were analyzed with OCT and ERG at 5 weeks of age; the hyperglycemic rats were then split into two groups and fed the vehicle or tonabersat for 14 days during weeks 6 and 7 of age. At week 8, animals were again assessed with ERG and OCT and tissues collected for immunohistochemical analysis. Four tonabersat-treated rats were, however, left until 3 months of age before final ERG and OCT and tissue collection.
Electroretinogram Recording—The procedure was performed as described previously. Vessey K A, Wilkinson-Berka J L, Fletcher E L. Characterization of retinal function and glial cell response in a mouse model of oxygen-induced retinopathy. J Comp Neurol. 2011; 519:506-27. Essentially, SD rats were dark-adapted overnight for 12-14 hours before the ERG recording. For the dry AMD, the ERG baseline was recorded for all groups before light damage and at time points after the light damage insult (24 hours, 1 week, 2 weeks and 3 months post intense light). For the DR model, ERGs were recorded at 5 weeks of age to compare normal SD and hyperglycemic rat retinal function. Tonabersat treated and vehicle control hyperglycemic rats were assessed again at 8 weeks of age. After dark adaptation, rats were anaesthetized by an intraperitoneal injection of a combination of ketamine (75 mg/kg, Parnell Technologies, New Zealand) and domitor (0.5 mg/kg, Pfizer, New Zealand). A dim red light generated by a light-emitting diode (λmax=650 nm) was used during manipulations of dark-adapted animals. The corneas were maintained hydrated with 1% carboxymethylcellulose sodium (Celluvisc, Allergan, USA) during ERG recording. Right and left eye ERGs were recorded using gold ring electrodes (Roland Consult Stasche & Finger GmbH, Germany). A U-shaped active electrode was kept in contact with the center of the cornea. […] Normal body temperature was maintained to avoid temperature-driven ERG amplitude fluctuation by placing animals on a 37° C. heated pad. Full-field ERG responses were elicited by a twin-flash ([…] stimulus interval) generated from a photographic flash unit (Nikon SB900 flash, Japan), via a Ganzfeld sphere. […]

[1] = Estimated circulating concentration after oral tonabersat in peanut butter; assay type: in vivo, Sprague Dawley (SD) rats
Protocol: Tonabersat treatment of light damaged rats—LD rats were randomly assigned to low, middle or high dose of tonabersat (n=7 per group). The mixture of tonabersat in peanut butter was prepared fresh for each experiment. Three oral tonabersat doses were tested (n=7 per group) with follow up to 2 weeks post-injury, and the highest dose group then split with three animals taken for histological analysis, and four animals followed to 3 months post-injury. There was a ten-animal vehicle only control group. The group of rats that were kept for 3 months were maintained in separate cages for drug or vehicle-treated animals, but were kept under the same light conditions. Tonabersat was fed to animals in peanut butter at 0.26 mg/kg (on average 0.08 mg delivered, estimated circulating concentration 10 μM), 0.8 mg/kg (average of 0.24 mg delivered; 30 μM circulating) or 2.4 mg/kg (on average 0.72 mg delivered; 90 μM circulating) following consideration of previous unsuccessful human trial dosing levels. Silberstein S D. Tonabersat, a novel gap-junction modulator for the prevention of migraine. Cephalalgia. 2009; 29 Suppl 2:28-35; Dahlof C G, Hauge A W, Olesen J. Efficacy and safety of tonabersat, a gap-junction modulator, in the acute treatment of migraine: a double-blind, parallel-group, randomized study. Cephalalgia. 2009; 29 Suppl 2:7-16; Goadsby P J, Ferrari M D, Csanyi A, Olesen J, Mills J G, Tonabersat TONSG. Randomized, double-blind, placebo-controlled, proof-of-concept study of the cortical spreading depression inhibiting agent tonabersat in migraine prophylaxis. Cephalalgia. 2009; 29:742-50. […] The treatment groups were known to the investigator at the time of treatment, but groups were then randomized prior to statistical comparison which meant that analysis was conducted without the knowledge of which were treated or control animals. […] Two weeks later animals were again assessed with ERG and OCT and tissue collection proceeded immediately after, except for four rats in the high dose group that were under experimentation for 3 more months.

[2] = 0.28 mg/kg once daily 14 days, week 8, p<0.001
[3] = 0.28 mg/kg once daily 14 days, week 8, p<0.01

mixed ERG a-wave, maximum intensity (hyperglycemic rats; 0.28 mg/kg once daily 14 days, 8 weeks, untreated −370 V): -630 µV
implicit times (hyperglycemic rats; 0.28 mg/kg once daily 14 days, week 8): not different
mixed b-wave signals (hyperglycemic rats; 0.28 mg/kg once daily 14 days, week 8, all intensities, p<0.001): significantly recovered
mixed ERG a-wave vs untreated (hyperglycemic rats; 0.28 mg/kg once daily 14 days, week 8, intensities 0.1-2.1 cd·s/m2, p<0.001): significantly higher
rod PII amplitude (hyperglycemic rats; [2]): significantly recovered
rod PIII amplitude (hyperglycemic rats; [2]): significantly recovered
cone PII amplitude (hyperglycemic rats; [3]): significantly recovered
summed OPs amplitude (hyperglycemic rats; [3]): significantly recovered
mixed b-wave, maximum intensity (hyperglycemic rats; 0.28 mg/kg once daily 14 days, week 8, untreated controls 400 V): 700 µV
retinal function compared to vehicle hyperglycemic rats (hyperglycemic rats; 0.28 mg/kg oral once daily 14 days (weeks 5 to 7), week 8): significantly recovered
estimated circulating concentration ([1]; 0.26 mg/kg oral in peanut butter (on average 0.08 mg delivered)): 10 µM
estimated circulating concentration ([1]; 0.8 mg/kg oral in peanut butter (average 0.24 mg delivered)): 30 µM
estimated circulating concentration ([1]; 2.4 mg/kg oral in peanut butter (on average 0.72 mg delivered)): 90 µM
Structure (SMILES): CC(=O)c1ccc2c(c1)[C@H](NC(=O)c1ccc(F)c(Cl)c1)[C@H](O)C(C)(C)O2 [tonabersat, N-[(3S,4S)-6-acetyl-3-hydroxy-2,2-dimethyl-3,4-dihydrochromen-4-yl]-3-chloro-4-fluorobenzamide]
